The values that follow are results of earlier work, collected in patent publication US9756853B2, “Solid pesticidal formulation” (priority 2013, dated 2017).

Values after ≈ are worked out from the molar mass of the structure shown.

The conditions of the data set: 20° C.

`CN/C(=N/CC1CCOC1)N[N+](=O)[O-]` (stereo not shown) [dinotefuran]: the solubility in water was 40 mg/mL (≈ 198 mM).
